Assays:
virus = settings: integrase mutations at V165 and V249, and at C280 for a second virus
integrase = integrase (Human immunodeficiency virus type 1 group M subtype B, UniProt P04585); experiment: Integrase inhibitor in vitro; type: biochemical
viral DNA = experiment: Quantification of total viral DNA synthesized and of DNA integrated into the host cell genome after infection (Butler et al.); type: cell-based; settings: FIG. 1
Experimental: FIG. 1, the quantification of the total viral DNA synthesized 6 hours after infection and the quantity of viral DNA integrated into the genome 8 hours after infection, and
Study of the Quantification of the Total Viral DNA Synthesized and of the DNA Integrated into the Genome of a Host Cell after Infection
The operation described by Butler et al. in Nat. Med. 2001 May; 7 (5): 631-4 is carried out.

integrase of HIV-1 = biological target: T1, integrase of HIV-1 (Human immunodeficiency virus type 1 group M subtype B, UniProt P04585); experiment: Nuclear import test on the integrase of HIV-1 in permeabilized HeLa cells; type: cell-based; settings: 30 minutes at 30° C., FIGS. 5 and 6
T1 construct: incubated for 30 minutes at 30° C. with integrase coupled with Cyanine 3 fluorochrome
Experimental: FIGS. 5 and 6 show the quantification of the fluorescence intensity measured in a nuclear import test on the integrase of HIV-1 in permeabilized HeLa cells in the presence or absence of cytoplasmic extracts.
The import tests in FIG. 5 were carried out as described in Depienne et al. 2001. HeLa cells were permeabilized with Digitonin, then incubated for 30 minutes at 30° C. with integrase coupled with Cyanine 3 fluorochrome in the presence of energy, in the absence of cytosolic extracts and in the presence or absence of increasing concentrations of different molecules as indicated. The cells were then fixed, analyzed by epifluorescence microscopy and acquisitions were carried out with a CCD camera.
For each condition, the fluorescence intensity per surface unit was quantified in 150 to 300 nuclei originating from 3 independent experiments.
The data of FIGS. 6 and 7 were obtained as follows: HeLa cells were permeabilized with digitonin, then incubated for 30 minutes at 30° C. with integrase conjugated to Cyanine 3 fluorochrome and with bovine serum albumin (BSA) conjugated to the standard nuclear localization signal of the T antigen of the SV40 virus (NLS) and with fluorescein (BSA-NLS), in the presence of cytosolic extracts and energy and in the presence or in the absence of increasing concentrations of different molecules as indicated. […]

SMILES: COc1cc(/C=C/c2ccc3ccc(C(=O)[O-])c(O)c3n2)cc(O)c1O.[Na+] [FZ41, 8-hydroxy-2-[2-[(3,4-dihydroxy,5-methoxyphenyl)ethenyl]]7-quinoline carboxylic acid]
- emergence of resistant viruses (virus): emergence of viruses resistant to the drug
- Integrase inhibitor in vitro (integrase): YES
- total viral DNA synthesized (viral DNA; 6 hours after infection): strong reduction
- viral DNA integrated into the genome (viral DNA; 8 hours after infection): strong reduction
- nuclear import of integrase (fluorescence in the nuclei of permeabilized cells) (integrase of HIV-1): considerably reduce

From US7479497B2, “Use of quinoline derivatives with anti-integrase effect and applications thereof” (priority 2002, dated 2009)
